Patent US20230121313A1 (priority 2019, published 2023)

Columns and labels:
[1] = test system: patients with treatment-resistant depression (TRD); experiment: CADSS, phase 2 dose-response study in TRD; format: in vivo, human
Experimental: (§1) Adverse events were monitored throughout the study. Other safety assessments (i.e., laboratory tests, vital signs, physical examination) were performed at pre-specified time points. Vital signs, the Clinician Administered Dissociative States Scale (CADSS; Bremner, “Measurement of dissociative states with the clinician-administered dissociative states scale (CADSS)”, J. Traumatic Stress, 1998, 11(1):125-136), and the 4-item positive symptom subscale from the Brief Psychiatric Rating Scale (BPRS; Overall, “The Brief Psychiatric Rating Scale. Psychological Reports”, 1962, 10:799-812) were assessed pre-dose, at 40 minutes, and 2 hours post-dose.

[2] = test system: patients with treatment-resistant depression (TRD); experiment: Adverse events, phase 2 dose-response study in TRD; format: in vivo, human; details: double-blind
Experimental: as §1
Safety data were analyzed in Period 1, Period 2, double-blind, and open-label data sets, for all subjects receiving at least 1 dose of study medication.

## CN[C@]1(c2ccccc2Cl)CCCCC1=O [esketamine, (S)-2-(2-chlorophenyl)-2-(methylamino)cyclohexanone]
[1]
  CADSS perceptual changes/dissociative symptoms resolved by: ≤ 2 h
  CADSS perceptual changes/dissociative symptoms: time of peak: 30 to 40 min
[2]; esketamine 28 mg, N = 19
  Dissociation, number of participants: 0
  Dissociative disorder, % of participants: (11) %
  Dissociative disorder, number of participants: 2
  Dizziness, % of participants: (21) %
  Dizziness, number of participants: 4
  Dysgeusia, % of participants: (11) %
  Dysgeusia, number of participants: 2
  Feeling abnormal, % of participants: (11) %
  Feeling abnormal, number of participants: 2
  Headache, % of participants: (32) %
  Headache, number of participants: 6
  Hypersomnia, % of participants: (11) %
  Hypersomnia, number of participants: 2
  Hypertension, number of participants: 0
  Hypoesthesia oral, % of participants: (5) %
  Hypoesthesia oral, number of participants: 1
  Insomnia, number of participants: 0
  Nasal discomfort, number of participants: 0
  Nausea, % of participants: (11) %
  Nausea, number of participants: 2
  Oropharyngeal pain, number of participants: 0
  Polyuria, number of participants: 0
  Sedation, % of participants: (5) %
  Sedation, number of participants: 1
  Throat irritation, % of participants: (5) %
  Throat irritation, number of participants: 1
  Total with events, % of participants: (58) %
  Total with events, number of participants: 11
  Tunnel vision, number of participants: 0
  Vertigo, % of participants: (11) %
  Vertigo, number of participants: 2
  Vision blurred, number of participants: 0
[2]; esketamine 56 mg, N = 20
  Dissociation, % of participants: (35) %
  Dissociation, number of participants: 7
  Dissociative disorder, % of participants: (5) %
  Dissociative disorder, number of participants: 1
  Dizziness, % of participants: (40) %
  Dizziness, number of participants: 8
  Dysgeusia, % of participants: (15) %
  Dysgeusia, number of participants: 3
  Feeling abnormal, % of participants: (5) %
  Feeling abnormal, number of participants: 1
  Headache, % of participants: (15) %
  Headache, number of participants: 3
  Hypersomnia, number of participants: 0
  Hypertension, % of participants: (10) %
  Hypertension, number of participants: 2
  Hypoesthesia oral, % of participants: (20) %
  Hypoesthesia oral, number of participants: 4
  Insomnia, % of participants: (10) %
  Insomnia, number of participants: 2
  Nasal discomfort, % of participants: (10) %
  Nasal discomfort, number of participants: 2
  Nausea, % of participants: (20) %
  Nausea, number of participants: 4
  Oropharyngeal pain, % of participants: (5) %
  Oropharyngeal pain, number of participants: 1
  Polyuria, % of participants: (10) %
  Polyuria, number of participants: 2
  Sedation, % of participants: (10) %
  Sedation, number of participants: 2
  Throat irritation, number of participants: 0
  Total with events, % of participants: (80) %
  Total with events, number of participants: 16
  Tunnel vision, number of participants: 0
  Vertigo, % of participants: (5) %
  Vertigo, number of participants: 1
  Vision blurred, number of participants: 0
[2]; esketamine 84 mg, N = 17
  Dissociation, % of participants: (24) %
  Dissociation, number of participants: 4
  Dissociative disorder, % of participants: (24) %
  Dissociative disorder, number of participants: 4
  Dizziness, % of participants: (47) %
  Dizziness, number of participants: 8
  Dysgeusia, % of participants: (29) %
  Dysgeusia, number of participants: 5
